Data from paper PMC9545474, “Anticancer Water‐Soluble Organoruthenium Complexes: Synthesis and Preclinical Evaluation” (Chembiochem, 2022).

What was measured:
[1] = tested on: A2780cisR subcutaneous tumour xenograft; assay: Efficacy in A2780cisR (A2780/cis) subcutaneous tumour xenograft model; type: in vivo, Female Balb/c immunodeficient nude mice; conditions: 6 at 50 mg/kg, 8 at 15 mg/kg, i.p.; for Median time to RTV2 / Maximum % weight loss / Growth delay: A2780/cis xenograft, days 0–4; for Maximum % weight loss: day in brackets; for Growth delay: versus untreated
Method: (§1) Compounds: All compounds were provided in powdered form and stored in the −20 °C freezer. They were formulated just before use. […] The drugs were then administered within 10 minutes of initial dilution.
(§2) Animals: Female Balb/c immunodeficient nude mice aged 6–12 weeks were used (Envigo, Blackthorn, UK). Mice were kept in cages housed in isolation cabinets in an air‐conditioned room with regular alternating cycles of light and darkness. They received Teklad 2018 diet (Envigo, Blackthorn, UK) and water ad libitum. All animal procedures were carried out under a project licence issued by the UK Home Office and UK National Cancer Research Institute Guidelines for the Welfare of Animals were followed throughout.
(§3) S.c. xenograft tumours: A2780/WT and A2780/cis tumours were excised from a donor animal, placed in sterile physiological saline containing antibiotics and cut into small fragments of approximately 5 mm^3. Under brief general inhalation anaesthesia, fragments were implanted in the flank of each mouse using a trocar. Once the tumours could accurately be measured by callipers, the mice were allocated into groups (control or treated) by restricted randomisation to keep group mean tumour size variation to a minimum, with 3 animals set up per group.
(§4) Evaluation of efficacy in s.c. xenograft models: The compounds were prepared fresh on the days of treatment as described above and administered i. p. to mice on days 0–4 in a volume of 0.1 mL per 10 g of body weight. […] The negative control group was untreated.
(§5) The effects of therapy were assessed by frequent monitoring growth of the tumours and body weight. Two‐dimensional calliper measurements of the tumours were taken, and volumes calculated using the formula (a^2×b)/2, where a is the smaller and b the larger diameter of the tumour. Tumour volume was then normalised to the respective volume on day 0, and semi‐log plots of relative tumour volume (RTV) versus time were made. Mann‐Whitney U tests were performed to determine the statistical significance of any differences in growth rate (based on tumour volume doubling time, RTV2) between control and treated groups.

[2] = tested on: A2780 ovarian cancer cells; assay: 24-hour MTT chemosensitivity assay with 72-hour recovery, A2780; type: cell-based, human; conditions: for IC50: 24 h exposure, 72 h recovery, MTT, read-out: IC50 values ±SD, A2780; for Selectivity index (SI), A2780: mean IC50 PNT2 / mean IC50 A2780
Method: Chemosensitivity studies were undertaken using a 24‐hour MTT assay, with a 72‐hour recovery period. The IC50 values were determined against ovarian A2780 (cisplatin‐sensitive) and A2780cisR (cisplatin‐resistant) cancer cell lines, non‐small‐cell lung H460 cancer cell line, and normal prostate PNT2 cell line, exposed to each of compounds 4–8, cisplatin or the phosphine ligands (Table 1 and S4, Figures S29–S31). […] This is unusual but can be related to solubility issues not visible for the naked eye and thus hindering its activity in cells. […] When tested on their own, the phosphine ligands are not active below 100 μM for all four cell lines. […] This therefore prevents comparison with the well‐known RAPTA family, and more especially with RAPTA−C which bears a PTA ligand and a p‐cym ligand, making this complex relatively similar in terms of geometry with complex 4.[21] […] This confirms the interest of the sulfur coordinating atom in terms of cytotoxicity for organoruthenium complexes.[23]
Chemosensitivity assay: In vitro chemosensitivity tests were performed against A2780, A2780cisR, PNT2 and H460 cells. Cells were routinely maintained as monolayer cultures in RPMI 1640 medium supplemented with 10 % foetal calf serum, penicillin (100 I.U./mL) and streptomycin (100 μg/mL), sodium pyruvate (1 mM) and L‐glutamine (2 mM). For chemosensitivity studies, cells were seeded in 96‐well plates at a concentration of 7.5×10^3 cells per well and the plates were incubated for 24 h at 37 °C and a 5 % CO2 humidified atmosphere prior to drug exposure.
Complexes were dissolved in either DMSO (complexes 4, 5, and 8) or PBS (complexes 6 and 7) to provide stock solutions which were further diluted with media to provide a range of final concentrations. Drug‐media solutions were added to cells (the final concentration of DMSO was less than 1 % (v/v) in all cases) and incubated for 24 h at 37 °C and a 5 % CO2 humidified atmosphere. The drug‐media solution was removed from the wells and the cells were washed with PBS (100 μL, twice) and 200 μL of complete fresh media were added to each well. The plates were further incubated for 72 h at 37 °C and a 5 % CO2 humidified atmosphere to allow for a period of recovery. 3‐(4,5‐dimethylthiazol‐2‐yl)‐2,5‐diphenyltetrazolium bromide (MTT) (40 μL, 2.5 mg/mL) was added to each well and plates were incubated for 2 h. All solutions were then removed and 100 μL of DMSO was added to each well in order to dissolve the purple formazan crystals. A Thermo Scientific Multiskan EX microplate photometer was used to measure the absorbance in each well at 570 nm. Cell survival was determined as the absorbance of treated cells divided by the absorbance of controls and expressed as a percentage. The IC50 values were determined from plots of % survival against drug concentration. Each experiment was repeated in triplicates of triplicates and a mean value was obtained and stated as IC50 (μM) ± SD. Untreated cells were used as a negative control, and cells treated with cisplatin were used as a positive control.

[3] = tested on: A2780 subcutaneous tumour xenograft; assay: Efficacy in A2780 subcutaneous tumour xenograft model; type: in vivo, Female Balb/c immunodeficient nude mice; conditions: 6 at 50 mg/kg, 8 at 15 mg/kg, i.p.; for Maximum % weight loss / Median time to RTV2: days 0–4; for Growth delay: days 0–4, versus untreated
Method: as §1, §2, §3, §4, §5

A2780 cells = assay: JC-10 mitochondrial membrane potential assay by flow cytometry; type: cell-based, human; conditions: A2780, 24 h, complexes at IC50, cisplatin 6.5 µM
Text: A membrane potential sensitive fluorescent probe JC‐10 was used to determine whether the apoptosis induced by complexes 6 and 8 is accompanied by changes in the mitochondrial membrane potential (ΔΨm) of A2780 cells. JC‐10 aggregates inside mitochondria and emits orange fluorescence. Following membrane […], JC‐10 is disaggregated and this in turn reduces the orange fluorescence.
Figure 8 Effect of complexes 6 and 8 on the mitochondrial membrane potential. […] The percentages of cells with depolarised mitochondrial membrane potential were assessed by flow cytometry after staining with JC‐10. The data are expressed as the means±SD of the three individual experiments.
Mitochondrial membrane potential assay: Analysis of the changes of mitochondrial potential in A2780 cells after exposure to complexes 6 and 8 was carried out using the JC‐10 mitochondrial membrane potential assay kit (abcam®) according to the manufacturer's instructions. Briefly, 1.0×10^6 cells per well were seeded in a 6‐well plate and incubated for 24 at 37 °C and a 5 % CO2 humidified atmosphere. […] Supernatants were removed by suction, and each well was washed with PBS before detaching the cells using trypsin. Staining of the samples was done in tubes protected from light, incubating for 30 min in the dark at room temperature. Samples were immediately analysed on a BD Accuri C6 Plus System Flow Cytometer, reading the reduction of fluorescence in the FL2 channel.

Compound	Median time to RTV2 [1] [days]	Maximum % weight loss [1] [%]	Growth delay [1] [days]	Toxicity in xenograft study ([1]; A2780cisR xenograft)	IC50 [2] [nM]	Selectivity index (SI), A2780 [2]	Toxicity in xenograft study [3]	Maximum % weight loss [3] [%]	Median time to RTV2 [3] [days]	Growth delay [3] [days]	% cell population with high orange fluorescence (A2780 cells; Experiment 1) [%]	% cell population with low orange fluorescence (A2780 cells; Experiment 1) [%]	% cell population with high orange fluorescence (A2780 cells; Experiment 2) [%]	% cell population with low orange fluorescence (A2780 cells; Experiment 2) [%]	% cell population with high orange fluorescence (A2780 cells; Experiment 3) [%]	% cell population with low orange fluorescence (A2780 cells; Experiment 3) [%]	% cell population with high orange fluorescence (A2780 cells; Summary, mean values ± SD) [%]	% cell population with low orange fluorescence (A2780 cells; Summary, mean values ± SD) [%]
Cc1ccc(C(C)C)cc1.N#CC1=C(C#N)[S][Ru-]([P+](c2ccccc2)(c2ccccc2)c2ccccc2)[S]1 [Complex 8, (η^6‐p‐cymene)(PPh3)Ru(Mnt)]	10.0	2	7.2	No toxicity was observed	960 ± 40	2.50	No toxicity was observed	0	1.5	0.1	81.9	18.1	82.5	17.5	80.0	20.0	81.5 ± 1.3	18.5 ± 1.3
(η^6‐p‐cymene)(TPPTS)Ru(Mnt) [Complex 6]	3.0	2	0.2	–	600 ± 70	2.67	–	0	2.0	0.6	60.4	39.6	55.5	44.5	62.7	37.3	59.5 ± 3.7	40.5 ± 3.7
